The term pKd denotes the negative decadic logarithm of the Kd, by convention in mol/L.

This experiment addresses T1, full-length Abl1 NanoLuc fusion (Abl1-Nluc, NLuc-Abl1) (Homo sapiens, UniProt P00519).
T1 construct: full-length Abl1 fused to the C-terminus of NanoLuc luciferase (Promega plasmid), transiently expressed in HEK293T cells
The experiment in a line: NanoBRET tracer isotherm in live HEK293T cells. In kind it is cell-based. The settings on record: labelled compound; […] h; ATP site; read-out: Kd,app. The source says:
NanoBRET tracer isotherm in live HEK293T cells on full-length Abl1 NanoLuc fusion (Abl1-Nluc, NLuc-Abl1) | tracer probe (K-4, Promega), suitable for all mutants
Background: In BRET a luciferase serves as donor, and the signal depends on an acceptor being close.

pKd: −log10 of the molar value.

T1 sequence (P00519 whole entry, the tested form may be a part): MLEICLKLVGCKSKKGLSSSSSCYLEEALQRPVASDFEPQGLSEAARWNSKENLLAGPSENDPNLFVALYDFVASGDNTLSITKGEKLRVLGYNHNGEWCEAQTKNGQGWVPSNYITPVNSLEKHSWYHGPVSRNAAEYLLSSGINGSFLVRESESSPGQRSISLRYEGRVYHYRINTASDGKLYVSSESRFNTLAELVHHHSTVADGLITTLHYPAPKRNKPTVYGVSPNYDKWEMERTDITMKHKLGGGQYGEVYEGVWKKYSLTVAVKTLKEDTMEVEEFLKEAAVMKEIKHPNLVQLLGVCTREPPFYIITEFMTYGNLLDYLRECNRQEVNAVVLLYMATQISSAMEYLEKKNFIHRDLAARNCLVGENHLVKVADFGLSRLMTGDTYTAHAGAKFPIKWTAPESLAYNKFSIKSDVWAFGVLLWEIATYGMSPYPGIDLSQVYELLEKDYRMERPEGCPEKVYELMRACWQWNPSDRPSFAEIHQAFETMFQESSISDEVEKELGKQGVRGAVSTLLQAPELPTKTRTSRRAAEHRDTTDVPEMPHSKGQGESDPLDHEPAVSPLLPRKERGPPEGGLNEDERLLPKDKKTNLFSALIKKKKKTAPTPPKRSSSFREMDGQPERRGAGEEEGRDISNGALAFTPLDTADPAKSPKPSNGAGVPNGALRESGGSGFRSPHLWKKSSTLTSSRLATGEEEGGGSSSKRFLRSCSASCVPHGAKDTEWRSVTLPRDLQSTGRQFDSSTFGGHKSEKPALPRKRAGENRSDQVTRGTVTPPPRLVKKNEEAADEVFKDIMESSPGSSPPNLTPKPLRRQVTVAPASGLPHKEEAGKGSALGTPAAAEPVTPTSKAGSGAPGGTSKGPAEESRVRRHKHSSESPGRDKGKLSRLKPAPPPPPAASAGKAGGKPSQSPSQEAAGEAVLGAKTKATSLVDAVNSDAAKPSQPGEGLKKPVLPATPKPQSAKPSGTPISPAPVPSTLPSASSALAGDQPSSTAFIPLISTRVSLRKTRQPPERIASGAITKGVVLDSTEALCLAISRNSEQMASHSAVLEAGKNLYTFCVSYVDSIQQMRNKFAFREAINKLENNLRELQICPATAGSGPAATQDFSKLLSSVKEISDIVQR

For NanoBRET tracer K-4 (Promega), the pKd is 7.41.

The values are drawn from article doi:10.1101/2021.06.28.449968v1 (biorxiv, 2021).
